ChEMBL document CHEMBL4308841, “Synthesis, in vitro antiproliferative activity, and kinase inhibitory effects of pyrazole-containing diarylureas and diarylamides” (Eur J Med Chem, 2018)
pIC50: −log10 of the molar value.

Each compound was assayed on SR (assay: Growth inhibition of human SR cells assessed as cell growth at 0.1 uM incubated for 48 hrs by sulforhodamine B assay relative to control). Conditions: read-out: Activity.
Assay type: functional
`O=C(Nc1cccc(-n2cc(-c3ccncc3)c(-c3cc(O)cc(Cl)c3)n2)c1)c1cc(C(F)(F)F)cc(C(F)(F)F)c1` gave a growth at 0.1 µM of 94%.

Each compound was assayed on MDA-MB-468 (assay: Growth inhibition of human MDA-MB-468 cells incubated for 48 hrs by sulforhodamine B assay). Conditions: MDA-MB-468, 48 h.
Assay type: functional, cell-based
Work on `O=C(Nc1cccc(-n2cc(-c3ccncc3)c(-c3cc(O)cc(Cl)c3)n2)c1)c1cc(C(F)(F)F)cc(C(F)(F)F)c1` yielded a pIC50 of 5.51.

Same assay, conditions: MDA-MB-468, 48 h, read-out: GI50
`O=C(Nc1cccc(-n2cc(-c3ccncc3)c(-c3cc(O)cc(Cl)c3)n2)c1)c1cc(C(F)(F)F)cc(C(F)(F)F)c1` gave a GI50 of 3.1 µM.

Same assay, conditions: MDA-MB-468, 48 h, read-out: LC50 (the source's name)
`O=C(Nc1cccc(-n2cc(-c3ccncc3)c(-c3cc(O)cc(Cl)c3)n2)c1)c1cc(C(F)(F)F)cc(C(F)(F)F)c1` showed a CC50 of over 100 µM.

Same assay, conditions: MDA-MB-468, 48 h, read-out: TGI
For `O=C(Nc1cccc(-n2cc(-c3ccncc3)c(-c3cc(O)cc(Cl)c3)n2)c1)c1cc(C(F)(F)F)cc(C(F)(F)F)c1`, the TGI was over 100 µM.

Same assay, conditions: MDA-MB-468, 48 h, read-out: pGI50 (converted)
Work on `O=C(Nc1cccc(-n2cc(-c3ccncc3)c(-c3cc(O)cc(Cl)c3)n2)c1)c1cc(C(F)(F)F)cc(C(F)(F)F)c1` yielded a GI50 of 3.09 µM.

Same assay, conditions: MDA-MB-468, 48 h, read-out: pLC50 (the source's name) (converted)
`O=C(Nc1cccc(-n2cc(-c3ccncc3)c(-c3cc(O)cc(Cl)c3)n2)c1)c1cc(C(F)(F)F)cc(C(F)(F)F)c1` gave a CC50 of over 100 µM.

Same assay, conditions: MDA-MB-468, 48 h, read-out: pTGI (converted)
With `O=C(Nc1cccc(-n2cc(-c3ccncc3)c(-c3cc(O)cc(Cl)c3)n2)c1)c1cc(C(F)(F)F)cc(C(F)(F)F)c1` the TGI was over 100 µM.

The compounds below were run on SK-OV-3 (assay: Growth inhibition of human SKOV3 cells assessed as cell growth at 100 uM incubated for 48 hrs by sulforhodamine B assay relative to control). Conditions: SK-OV-3, 48 h, read-out: Activity.
Assay type: functional
`O=C(Nc1cccc(-n2cc(-c3ccncc3)c(-c3cc(O)cc(Cl)c3)n2)c1)c1cc(C(F)(F)F)cc(C(F)(F)F)c1` gave a growth at 100 µM of 30%.

These compounds were tested on UACC-257 (assay: Growth inhibition of human UACC257 cells assessed as cell growth at 0.01 uM incubated for 48 hrs by sulforhodamine B assay relative to control). Conditions: UACC-257, 48 h, read-out: Activity.
Assay type: functional
`O=C(Nc1cccc(-n2cc(-c3ccncc3)c(-c3cc(O)cc(Cl)c3)n2)c1)c1cc(C(F)(F)F)cc(C(F)(F)F)c1` gave a growth at 0.01 µM of 92%.

What follows are compounds tested on IGROV-1 (assay: Growth inhibition of human IGROV1 cells assessed as cell growth at 0.01 uM incubated for 48 hrs by sulforhodamine B assay relative to control). Conditions: IGROV-1, 48 h, read-out: Activity.
Assay type: functional
Work on `O=C(Nc1cccc(-n2cc(-c3ccncc3)c(-c3cc(O)cc(Cl)c3)n2)c1)c1cc(C(F)(F)F)cc(C(F)(F)F)c1` yielded a growth at 0.01 µM of 100%.

Each compound was assayed on SK-MEL-2 (assay: Growth inhibition of human SK-MEL-2 cells assessed as cell growth at 1 uM incubated for 48 hrs by sulforhodamine B assay relative to control). Conditions: SK-MEL-2, 48 h, read-out: Activity.
Assay type: functional
Compound `O=C(Nc1cccc(-n2cc(-c3ccncc3)c(-c3cc(O)cc(Cl)c3)n2)c1)c1cc(C(F)(F)F)cc(C(F)(F)F)c1` has a growth at 1 µM of 106%.

These compounds were tested on CAKI-1 (assay: Growth inhibition of human Caki1 cells assessed as cell growth at 1 uM incubated for 48 hrs by sulforhodamine B assay relative to control). Conditions: CAKI-1, 48 h, read-out: Activity.
Assay type: functional
`O=C(Nc1cccc(-n2cc(-c3ccncc3)c(-c3cc(O)cc(Cl)c3)n2)c1)c1cc(C(F)(F)F)cc(C(F)(F)F)c1` showed a growth at 1 µM of 90%.

The compounds below were run on SN12C (assay: Growth inhibition of human SN12C cells assessed as cell growth at 100 uM incubated for 48 hrs by sulforhodamine B assay relative to control). Conditions: read-out: Activity.
Assay type: functional
Compound `O=C(Nc1cccc(-n2cc(-c3ccncc3)c(-c3cc(O)cc(Cl)c3)n2)c1)c1cc(C(F)(F)F)cc(C(F)(F)F)c1` has a growth at 100 µM of 17%.

These compounds were tested on HCT-116 (assay: Growth inhibition of human HCT116 cells assessed as cell growth at 0.01 uM incubated for 48 hrs by sulforhodamine B assay relative to control). Conditions: HCT-116, 48 h, read-out: Activity.
Assay type: functional
In the case of `O=C(Nc1cccc(-n2cc(-c3ccncc3)c(-c3cc(O)cc(Cl)c3)n2)c1)c1cc(C(F)(F)F)cc(C(F)(F)F)c1`, the growth at 0.01 µM was 102%.

These compounds were tested on LOX IMVI (assay: Growth inhibition of human LOXIMVI cells assessed as cell growth at 100 uM incubated for 48 hrs by sulforhodamine B assay relative to control). Conditions: read-out: Activity.
Assay type: functional
For `O=C(Nc1cccc(-n2cc(-c3ccncc3)c(-c3cc(O)cc(Cl)c3)n2)c1)c1cc(C(F)(F)F)cc(C(F)(F)F)c1`, the growth at 100 µM was -41%.

These compounds were tested on COLO 205 (assay: Growth inhibition of human COLO205 cells assessed as cell growth at 0.1 uM incubated for 48 hrs by sulforhodamine B assay relative to control). Conditions: COLO 205, 48 h, read-out: Activity.
Assay type: functional
In the case of `O=C(Nc1cccc(-n2cc(-c3ccncc3)c(-c3cc(O)cc(Cl)c3)n2)c1)c1cc(C(F)(F)F)cc(C(F)(F)F)c1`, the growth at 0.1 µM was 102%.

What follows are compounds tested on T47D (assay: Growth inhibition of human T47D cells assessed as cell growth at 1 uM incubated for 48 hrs by sulforhodamine B assay relative to control). Conditions: read-out: Activity.
Assay type: functional
With `O=C(Nc1cccc(-n2cc(-c3ccncc3)c(-c3cc(O)cc(Cl)c3)n2)c1)c1cc(C(F)(F)F)cc(C(F)(F)F)c1` the growth at 1 µM was 57%.

The compounds below were run on CCRF-CEM (assay: Growth inhibition of human CCRF-CEM cells assessed as cell growth at 0.1 uM incubated for 48 hrs by sulforhodamine B assay relative to control). Conditions: read-out: Activity.
Assay type: functional
With `O=C(Nc1cccc(-n2cc(-c3ccncc3)c(-c3cc(O)cc(Cl)c3)n2)c1)c1cc(C(F)(F)F)cc(C(F)(F)F)c1` the growth at 0.1 µM was 97%.

What follows are compounds tested on NCI-H460 (assay: Growth inhibition of human NCI-H460 cells assessed as cell growth at 1 uM incubated for 48 hrs by sulforhodamine B assay relative to control). Conditions: NCI-H460, 48 h, read-out: Activity.
Assay type: functional
`O=C(Nc1cccc(-n2cc(-c3ccncc3)c(-c3cc(O)cc(Cl)c3)n2)c1)c1cc(C(F)(F)F)cc(C(F)(F)F)c1` gave a growth at 1 µM of 92%.

The compounds below were run on ACHN (assay: Growth inhibition of human ACHN cells assessed as cell growth at 100 uM incubated for 48 hrs by sulforhodamine B assay relative to control). Conditions: read-out: Activity.
Assay type: functional
Work on `O=C(Nc1cccc(-n2cc(-c3ccncc3)c(-c3cc(O)cc(Cl)c3)n2)c1)c1cc(C(F)(F)F)cc(C(F)(F)F)c1` yielded a growth at 100 µM of 19%.

Each compound was assayed on NCI-H226 (assay: Growth inhibition of human NCI-H226 cells assessed as cell growth at 1 uM incubated for 48 hrs by sulforhodamine B assay relative to control). Conditions: NCI-H226, 48 h, read-out: Activity.
Assay type: functional
Compound `O=C(Nc1cccc(-n2cc(-c3ccncc3)c(-c3cc(O)cc(Cl)c3)n2)c1)c1cc(C(F)(F)F)cc(C(F)(F)F)c1` has a growth at 1 µM of 91%.

Each compound was assayed on MDA-MB-435 (assay: Growth inhibition of human MDA-MB-435 cells incubated for 48 hrs by sulforhodamine B assay). Conditions: MDA-MB-435, 48 h, read-out: GI50.
Assay type: functional, cell-based
`O=C(Nc1cccc(-n2cc(-c3ccncc3)c(-c3cc(O)cc(Cl)c3)n2)c1)c1cc(C(F)(F)F)cc(C(F)(F)F)c1` was tested, and the GI50 was 3.18 µM.
